Five molecules from publication doi:10.1101/679118v2 (biorxiv, 2019) can be followed below.

The structures appear in SMILES notation.

The experiment concerns E. histolytica. As to the kind of experiment: microbe, parasite or virus in culture. Details: species or system Entamoeba histolytica HM-1:IMSS trophozoites. Particulars: Entamoeba histolytica, 24 h, read-out: EC50 E. histolytica.

Take `COc1cc(NS(C)(=O)=O)ccc1Nc1c2ccccc2nc2ccccc12` [Amsacrine]: the concentration giving a half-maximal response (EC50) was determined as 80 µM.
The result for `C[C@H]([C@H](C)N1CC(=O)NC(=O)C1)N1CC(=O)NC(=O)C1` [ICRF 193] reads 15 µM.
The result for `COc1cc([C@@H]2c3cc4c(cc3[C@@H](O[C@@H]3O[C@@H]5CO[C@@H](C)O[C@H]5[C@H](O)[C@H]3O)[C@H]3COC(=O)[C@H]23)OCO4)cc(OC)c1O` [etoposide] reads 200 µM; that for `NC1CCN(c2c(F)cc3c(=O)c(C(=O)O)cn(C4CC4)c3c2Cl)C1` (centres unmarked) [Clinafloxacin], 270 µM.
The result for `O=C(O)c1cn(C2CC2)c2cc(N3CCNCC3)c(F)cc2c1=O` [ciprofloxacin] reads 250 µM.
